Holding throughout (test): relative viability (nuclei count vs DMSO), 5 days (fraction); higher = more cells survive
Compound in one test: CC(C)(C)c1cc(NC(=O)Nc2ccc(-c3cn4c(n3)sc3cc(OCCN5CCOCC5)ccc34)cc2)no1 [Quizartinib]
In a few lines: (§1)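 Acceptance criteria were a control CV below 25% and at least one doubling per plate. Lung cancer cell lines in 1536-well plates got five library-drug doses (not always all listed) √10 apart by pinning and were left 5 days with no medium change. Viability divides treated-well nuclei by vehicle-well nuclei and is the median across plates. Nuclei were counted by MetaXpress from 4× Hoechst images.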

Compound in a further test: COCC[n+]1c2c(n(Cc3cnccn3)c1C)C(=O)c1ccccc1C2=O [YM155]
A digest of the protocol: as §1

Compound in the test “Quizartinib + Alpelisib”: CC(C)(C)c1cc(NC(=O)Nc2ccc(-c3cn4c(n3)sc3cc(OCCN5CCOCC5)ccc34)cc2)no1 [Quizartinib] + Cc1nc(NC(=O)N2CCC[C@H]2C(N)=O)sc1-c1ccnc(C(C)(C)C(F)(F)F)c1 [Alpelisib] (partner 2 µM)
In a few lines: (§2)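 Each reported value is a median over duplicate plates. It expresses relative viability: treated-well nuclei count divided by vehicle-well nuclei count. Lung cancer cell lines in 1536-well plates were dosed by pin tool a day after seeding, alone with one drug or with a fixed anchor-drug dose plus five library-drug doses (not always all listed) in √10 steps, and nuclei were counted after 5 days.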

Compound in the test “YM155 + Pemetrexed”: COCC[n+]1c2c(n(Cc3cnccn3)c1C)C(=O)c1ccccc1C2=O [YM155] + Nc1nc2[nH]cc(CCc3ccc(C(=O)N[C@@H](CCC(=O)O)C(=O)O)cc3)c2c(=O)[nH]1 [Pemetrexed] (partner 0.2 µM)
A digest of the protocol:
as §2

As to EKVX, the relative viability with Quizartinib (0.001 µM) is 0.704; with Quizartinib (0.003162 µM) it was 1; with Quizartinib (0.01 µM), 0.99; with Quizartinib (0.03162 µM) it was 0.935; in the test with Quizartinib (0.1 µM), 1.05; with YM155 (0.002 µM), 0.927. In addition, the relative viability in the test with YM155 (0.006325 µM) worked out at 1.07; with YM155 (0.02 µM), 1.01; with YM155 (0.06325 µM), 0.857; with Quizartinib + Alpelisib (first compound 0.001 µM), 0.799; with Quizartinib + Alpelisib (first compound 0.003162 µM), 0.841; with Quizartinib + Alpelisib (first compound 0.01 µM), 0.924. Besides, the relative viability is 0.914 in the test with Quizartinib + Alpelisib (first compound 0.03162 µM); 0.973 with Quizartinib + Alpelisib (first compound 0.1 µM); 0.431 in the test with YM155 + Pemetrexed (first compound 0.002 µM); 0.437 with YM155 + Pemetrexed (first compound 0.006325 µM); 0.399 with YM155 + Pemetrexed (first compound 0.02 µM); 0.234 with YM155 + Pemetrexed (first compound 0.06325 µM).

For EMC-BAC-2, the relative viability in the test with Quizartinib (0.001 µM) came to 0.919; with Quizartinib (0.003162 µM), 0.976; with Quizartinib (0.01 µM) it was 0.927; in the test with Quizartinib (0.1 µM) it was 1.05; with YM155 (0.002 µM), 0.883; in the test with YM155 (0.006325 µM) it was 0.971. In addition, the relative viability worked out at 1.09 with YM155 (0.02 µM); 0.808 with YM155 (0.06325 µM); 0.695 with Quizartinib + Alpelisib (first compound 0.001 µM); 0.696 with Quizartinib + Alpelisib (first compound 0.003162 µM); 0.762 with Quizartinib + Alpelisib (first compound 0.01 µM); 0.766 in the test with Quizartinib + Alpelisib (first compound 0.03162 µM). Moreover, the relative viability with Quizartinib + Alpelisib (first compound 0.1 µM) stood at 0.73; in the test with YM155 + Pemetrexed (first compound 0.002 µM), 0.456; with YM155 + Pemetrexed (first compound 0.006325 µM) it was 0.486; with YM155 + Pemetrexed (first compound 0.02 µM) it was 0.463; with YM155 + Pemetrexed (first compound 0.06325 µM) it was 0.424.

On to EPLC-272H, for which the relative viability is 0.878 in the test with Quizartinib (0.001 µM); 1.08 with Quizartinib (0.003162 µM); 1.03 in the test with Quizartinib (0.01 µM); 1.04 with Quizartinib (0.03162 µM); 0.761 with Quizartinib (0.1 µM); 0.883 with YM155 (0.002 µM). Further, the relative viability turned out to be 0.989 in the test with YM155 (0.006325 µM); 1.01 in the test with YM155 (0.02 µM); 1.15 with YM155 (0.06325 µM); 0.667 with Quizartinib + Alpelisib (first compound 0.001 µM); 1.04 with Quizartinib + Alpelisib (first compound 0.003162 µM); 0.95 with Quizartinib + Alpelisib (first compound 0.01 µM). For the same cell line, the relative viability in the test with Quizartinib + Alpelisib (first compound 0.03162 µM) turned out to be 0.969; in the test with Quizartinib + Alpelisib (first compound 0.1 µM) it was 1.06; in the test with YM155 + Pemetrexed (first compound 0.002 µM), 0.327; with YM155 + Pemetrexed (first compound 0.006325 µM), 0.309; with YM155 + Pemetrexed (first compound 0.02 µM), 0.316; with YM155 + Pemetrexed (first compound 0.06325 µM), 0.319.

As for H3255, the relative viability with Quizartinib (0.001 µM) worked out at 0.822; in the test with Quizartinib (0.003162 µM) it was 0.964; with Quizartinib (0.01 µM) it was 0.969; in the test with Quizartinib (0.03162 µM), 1.03; in the test with Quizartinib (0.1 µM), 1.01; in the test with YM155 (0.002 µM) it was 0.953. In addition, the relative viability turned out to be 0.998 with YM155 (0.006325 µM); 1.01 with YM155 (0.02 µM); 0.929 in the test with YM155 (0.06325 µM); 0.55 with Quizartinib + Alpelisib (first compound 0.001 µM); 0.619 with Quizartinib + Alpelisib (first compound 0.003162 µM); 0.795 with Quizartinib + Alpelisib (first compound 0.01 µM). The relative viability with Quizartinib + Alpelisib (first compound 0.03162 µM) was found to be 0.63; with Quizartinib + Alpelisib (first compound 0.1 µM), 0.797; with YM155 + Pemetrexed (first compound 0.002 µM), 0.587; with YM155 + Pemetrexed (first compound 0.006325 µM), 0.627; with YM155 + Pemetrexed (first compound 0.02 µM), 0.565; with YM155 + Pemetrexed (first compound 0.06325 µM), 0.566.

On to HARA, for which the relative viability stood at 0.946 with Quizartinib (0.001 µM); 0.924 with Quizartinib (0.003162 µM); 1.05 in the test with Quizartinib (0.01 µM); 0.954 with Quizartinib (0.03162 µM); 0.941 in the test with Quizartinib (0.1 µM); 0.823 with YM155 (0.002 µM). The relative viability is 1.15 in the test with YM155 (0.006325 µM); 1.05 with YM155 (0.02 µM); 1.09 in the test with YM155 (0.06325 µM); 0.485 with Quizartinib + Alpelisib (first compound 0.001 µM); 0.78 with Quizartinib + Alpelisib (first compound 0.003162 µM); 0.893 in the test with Quizartinib + Alpelisib (first compound 0.01 µM). Also, the relative viability with Quizartinib + Alpelisib (first compound 0.03162 µM) was 0.791; with Quizartinib + Alpelisib (first compound 0.1 µM) it was 0.749; in the test with YM155 + Pemetrexed (first compound 0.006325 µM) it was 0.235; with YM155 + Pemetrexed (first compound 0.02 µM), 0.228; with YM155 + Pemetrexed (first compound 0.06325 µM), 0.268.

On to HCC-15, for which the relative viability with Quizartinib (0.001 µM) amounted to 0.842; with Quizartinib (0.003162 µM) it was 1; with Quizartinib (0.01 µM), 0.978; in the test with Quizartinib (0.03162 µM), 0.957; in the test with Quizartinib (0.1 µM), 0.963; with YM155 (0.002 µM), 0.928. Moreover, the relative viability in the test with YM155 (0.006325 µM) was found to be 1.11; with YM155 (0.02 µM), 0.975; with YM155 (0.06325 µM), 1.02; with Quizartinib + Alpelisib (first compound 0.001 µM) it was 0.833; with Quizartinib + Alpelisib (first compound 0.003162 µM) it was 0.881; in the test with Quizartinib + Alpelisib (first compound 0.01 µM), 0.941. The relative viability with Quizartinib + Alpelisib (first compound 0.03162 µM) is 0.884; with Quizartinib + Alpelisib (first compound 0.1 µM), 0.787; with YM155 + Pemetrexed (first compound 0.002 µM), 0.239; with YM155 + Pemetrexed (first compound 0.006325 µM), 0.229; with YM155 + Pemetrexed (first compound 0.02 µM) it was 0.23; in the test with YM155 + Pemetrexed (first compound 0.06325 µM), 0.242.

Turning to HCC-44, the relative viability is 0.963 in the test with Quizartinib (0.001 µM); 0.981 with Quizartinib (0.003162 µM); 0.888 with Quizartinib (0.01 µM); 1 in the test with Quizartinib (0.03162 µM); 0.858 with Quizartinib (0.1 µM); 0.986 in the test with YM155 (0.002 µM). For the same cell line, the relative viability with YM155 (0.006325 µM) was determined as 1.03; with YM155 (0.02 µM), 0.988; in the test with YM155 (0.06325 µM) it was 0.978; with Quizartinib + Alpelisib (first compound 0.001 µM), 0.798; with Quizartinib + Alpelisib (first compound 0.003162 µM), 0.78; with Quizartinib + Alpelisib (first compound 0.01 µM), 0.864. Further, the relative viability came out at 0.825 with Quizartinib + Alpelisib (first compound 0.03162 µM); 0.638 with Quizartinib + Alpelisib (first compound 0.1 µM); 0.615 in the test with YM155 + Pemetrexed (first compound 0.002 µM); 0.722 with YM155 + Pemetrexed (first compound 0.006325 µM); 0.624 with YM155 + Pemetrexed (first compound 0.02 µM); 0.643 with YM155 + Pemetrexed (first compound 0.06325 µM).

Take HCC-78: the relative viability was 0.967 with Quizartinib (0.001 µM); 1.03 with Quizartinib (0.003162 µM); 0.911 with Quizartinib (0.01 µM); 0.865 in the test with Quizartinib (0.03162 µM); 0.988 with Quizartinib (0.1 µM); 0.898 with YM155 (0.002 µM). Besides, the relative viability stood at 1.08 in the test with YM155 (0.006325 µM); 1.08 with YM155 (0.02 µM); 1.05 in the test with YM155 (0.06325 µM); 0.343 with Quizartinib + Alpelisib (first compound 0.001 µM); 0.33 with Quizartinib + Alpelisib (first compound 0.003162 µM); 0.393 with Quizartinib + Alpelisib (first compound 0.01 µM). Moreover, the relative viability is 0.315 in the test with Quizartinib + Alpelisib (first compound 0.03162 µM); 0.342 with Quizartinib + Alpelisib (first compound 0.1 µM); 0.896 with YM155 + Pemetrexed (first compound 0.002 µM); 0.954 in the test with YM155 + Pemetrexed (first compound 0.006325 µM); 0.935 in the test with YM155 + Pemetrexed (first compound 0.02 µM); 0.913 in the test with YM155 + Pemetrexed (first compound 0.06325 µM).

The values are drawn from the supplement of paper PMC10307832.
